This data set can be described thus: gradient 5% acetonitrile 3 min, to 50% in 2 min, to 85% in 15 min, held 3 min, 100 µL/min. The settings on record: column: Zorbax Extend-C18 2.1 x 50 mm; eluents: water / acetonitrile, 0.1% formic acid. The essentials:
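Retention times come from adduct peaks that were picked computationally and then checked by hand. The standards, pure and pooled in mixtures of ~100 molecules, were run on a Zorbax Extend-C18 column (2.1 × 50 mm, 1.8 μm) at 100 μL/min with water and acetonitrile, each with 0.1% formic acid. Detection was by quadrupole time-of-flight mass spectrometry in positive and negative ionization mode, with a dead volume of 40 μL and a dwell volume of 900 μL.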
Consider `O=C(Nc1c(C(=O)N2CCN(c3ccccn3)CC2)oc2ccccc12)c1cccc([N+](=O)[O-])c1`, for which the RP-LC retention time came to 744 s.

Regarding `COc1ccc(NS(=O)(=O)c2cc3n(c2)CCN(C(C)C)C3=O)cc1Cl`, the RP-LC retention time worked out at 775 s.

In turn, `CNC(=O)CN1C(=O)C2CCCCN2c2ccc(S(=O)(=O)N(C)C)cc21` (centres undefined) had an RP-LC retention time of 690 s.

The molecule `O=C(CN1C(=O)NC(c2ccccc2Cl)C2=C1COC2=O)NCc1ccccc1Cl` (centres undefined) yielded an RP-LC retention time of 801 s.

The molecule `CN(CCc1noc(COc2ccc(F)cc2)n1)C(=O)c1ccc(F)cc1` came in with an RP-LC retention time of 878 s.

In the case of `CCCCC(=O)N(C)CCc1noc(-c2ccc(C(=O)N3CCOCC3)cc2)n1`, the RP-LC retention time was 686 s.

For the molecule `O=C(CCc1c(-c2ccc(Cl)cc2)nc2ccccn12)NCCC1=CCCCC1`, the RP-LC retention time came out at 756 s.

For the molecule `O=C(NC1CC1)c1cn(CCC2CCCCN2C(=O)c2ccoc2)nn1` (centres undefined), the RP-LC retention time was determined as 641 s.

On to `COc1cc(OC)cc(C(=O)N2CCN(c3cc(=O)n(C(C)C)c(=O)n3C(C)C)CC2)c1`, for which the RP-LC retention time amounted to 855 s.

For the molecule `Cn1c(=O)sc2cc(S(=O)(=O)N3CCC(C(=O)NC4CCCC4)CC3)ccc21`, the RP-LC retention time was found to be 777 s.

Consider `CCOc1ccc(S(=O)(=O)N2CCC3(CCC(CN4CCN(C)CC4)O3)CC2)cc1` (centres undefined), for which the RP-LC retention time was 611 s.

Take `Cc1ccc(N2CCC(NC(=O)Nc3ccc4c(c3)OCCO4)C2=O)cc1C` (centres undefined): the RP-LC retention time was 798 s.

`CCOC(=O)c1nc(N2CCOCC2)c2c(-c3ccccc3Cl)noc2n1`: the RP-LC retention time came out at 934 s.

The molecule `CCCSCCCNC(=O)Cn1cnc2nc3c(cc2c1=O)CC(C)CC3` (centres undefined) registered an RP-LC retention time of 778 s.

Regarding `Cc1cc(S(=O)(=O)N2CCc3nc(-c4ccccc4)ncc3C2)ccc1F`, the RP-LC retention time was determined as 1090 s.

With `FC(F)Sc1ccc(-c2cn3cc(Cl)ccc3n2)cc1`, the RP-LC retention time stood at 841 s.

Turning to `CCCn1cnc2cc(CNC(=O)c3ccc(C(F)(F)F)cc3)ccc21`, the RP-LC retention time worked out at 674 s.

Molecule `COc1ccc(CNC(=O)C2(C)CCN(C(=O)NCc3ccco3)CC2)cc1` displayed an RP-LC retention time of 700 s.

In the case of `Cc1ccccc1C(=O)N1CCC2(CC1)NCc1ccccc1-n1ccnc12`, the RP-LC retention time stood at 609 s.

`Cn1cnc(S(=O)(=O)N2c3ccccc3CC2c2nnc(C3CCOCC3)o2)c1` (centres undefined) came in with an RP-LC retention time of 680 s.

`Cc1noc(-c2cccc(OC3CN(C(=O)NC(C)C)C3)c2)n1` yielded an RP-LC retention time of 760 s.

Regarding `O=C1CCC2(C(=O)NCC3CC3)CCCC=C2N1c1ccccc1` (centres undefined), the RP-LC retention time stood at 726 s.

On to `Cc1ccn2cc(-c3ccc(NS(=O)(=O)c4ccc(I)cc4)cc3)nc2n1`, for which the RP-LC retention time came to 701 s.

For the molecule `CC(C)Cn1c(=O)c(C(=O)NCCCN2CCCCC2)nc2cccnc21`, the RP-LC retention time turned out to be 642 s.

The molecule `Cc1ccc(-c2cn3cc(C(=O)NC(C)c4cccnc4)ccc3n2)cc1` (centres undefined) had an RP-LC retention time of 571 s.

`Cc1cnc(-c2cc(N3CCN(C(=O)CCS(C)(=O)=O)CC3)ncc2Cl)c(C)c1` yielded an RP-LC retention time of 728 s.

As to `Cc1oc(-c2ccc(OC(C)C)cc2)nc1CN(c1ccccc1)S(=O)(=O)c1cccs1`, the RP-LC retention time turned out to be 1290 s.

As for `Cn1c(SCC(N)=O)nnc1-c1sc2cc(Cl)ccc2c1Cl`, the RP-LC retention time stood at 702 s.

In the case of `COc1ccc(-c2ncc3c(n2)CCN(C(=O)Nc2ccc(C)cc2Cl)C3)cc1`, the RP-LC retention time came out at 1020 s.

In turn, `Cc1ccc2[nH]c(=O)c(CCC(=O)N3CCN(C4CCCCC4)CC3)cc2c1` displayed an RP-LC retention time of 619 s.

For `Cc1cc(Br)ccc1NC(=O)C1CCCN(c2ncnc3c2nc2n3CCCCC2)C1` (centres undefined), the RP-LC retention time worked out at 895 s.

Take `O=C(COc1ccc(Br)cc1)Nc1ccnn1Cc1cccs1`: the RP-LC retention time was 916 s.

Take `COc1ccc(NC(=O)c2cc(C)n3nc(-c4ccco4)cc3n2)c(OC)c1`: the RP-LC retention time amounted to 1100 s.

In turn, `O=c1c2nc(-c3ccc(Br)cc3)cn2ccn1-c1cccc(F)c1` yielded an RP-LC retention time of 898 s.

Molecule `CCc1nncn1C1CCN(S(=O)(=O)c2cc(OC)ccc2OC)CC1` showed an RP-LC retention time of 664 s.

Molecule `COC(=O)CNC(=O)Nc1ncc(-c2ccc(OC)cc2)n1C` yielded an RP-LC retention time of 607 s.

`CCCCCCNCc1ccc2c(c1)n(C)c(=O)n2C` yielded an RP-LC retention time of 604 s.

`Cc1ccc(-c2[nH]ncc2CN2C[C@@H]3CCN(S(C)(=O)=O)C[C@]3(CF)C2)cc1C` yielded an RP-LC retention time of 617 s.

The molecule `CN1CCN(CCNC(=O)c2ccc3c(c2)N(C)C(=O)C2CCCCN32)CC1` (centres undefined) had an RP-LC retention time of 572 s.

The molecule `COC(=O)C1=CN(c2cc(OC)cc(OC)c2)c2cc(F)ccc2S1(=O)=O` yielded an RP-LC retention time of 904 s.

The molecule `CC(C)n1cnnc1CC1CN(C(=O)Nc2ccccc2Cl)C1` registered an RP-LC retention time of 640 s.

Turning to `Cc1c2c(nn1-c1ccc(SCc3ccc(F)cc3)nn1)CCC2`, the RP-LC retention time amounted to 1280 s.

`Cc1ccccc1-c1nc(-c2ccc(-n3ccnc3)nc2)no1` came in with an RP-LC retention time of 814 s.

`O=C(NCc1csc(C2CCN(C(=O)c3ccc(F)c(F)c3)CC2)n1)C1CCC1` registered an RP-LC retention time of 742 s.

`COc1ccc(N2CC(c3noc(-c4cc(F)ccc4F)n3)CC2=O)cc1` (centres undefined) yielded an RP-LC retention time of 849 s.

In turn, `CCCNC(=O)N1C[C@@H]2C(=O)N(Cc3ccc4c(c3)OCO4)C(=O)[C@@H]2C1` returned an RP-LC retention time of 708 s.

For the molecule `Cc1nc(CCNC(=O)[C@H]2CCCN2C(=O)c2ccc(F)cc2)cs1`, the RP-LC retention time was 627 s.

Take `O=S(=O)(c1ccc(F)c(F)c1)N1CCc2nc(-c3ccc(Cl)cc3)ncc2C1`: the RP-LC retention time is 1230 s.

On to `CC(NC(=O)Cn1cc(C(=O)c2ccco2)c2ccccc21)c1ccc2c(c1)OCCCO2` (centres undefined), for which the RP-LC retention time was 837 s.

`COc1ccccc1NC(=O)c1cc(C(C)C)n2nccc2n1` gave an RP-LC retention time of 1180 s.

`CN(C)C(=O)c1cc2c(s1)CCC(C(=O)NC1CCCCC1)C2` (centres undefined) had an RP-LC retention time of 748 s.

Regarding `CCCC(=O)O[C@]1(C(=O)CO)CC[C@H]2[C@@H]3CCC4=CC(=O)CC[C@]4(C)[C@H]3[C@@H](O)C[C@@]21C`, the RP-LC retention time was found to be 1010 s.

As to `CCN1C(=O)COc2ccc(-c3nc(NC(=O)c4cccs4)sc3C)cc21`, the RP-LC retention time worked out at 990 s.

In the case of `O=C(Cn1cnc2nc(N3CCCC(C(=O)NC4CC4)C3)sc2c1=O)NCCC1=CCCCC1` (centres undefined), the RP-LC retention time turned out to be 722 s.

Consider `CCn1nccc1C(=O)NCc1cccnc1OC`, for which the RP-LC retention time was 662 s.

`COc1ccc(NC(=O)N2CCC3(CC2)N=C(c2cccc(Cl)c2)C(=O)N3)c(OC)c1`: the RP-LC retention time was found to be 856 s.

In turn, `CSc1ccc(CNC(=O)C2CCCN(C(=O)c3[nH]c(C)cc3C)C2)cc1` (centres undefined) came in with an RP-LC retention time of 701 s.

Turning to `COc1ccccc1N1CCN(CCNC(=O)Cc2ccc(Cl)cc2)CC1`, the RP-LC retention time was 572 s.

On to `Cc1ccc(CNC(=O)C2(C)CCCN(S(=O)(=O)c3ccccc3)C2)cc1` (centres undefined), for which the RP-LC retention time came out at 960 s.

Turning to `O=C(NCCOc1cccc2cccnc12)c1cccc(-n2cnnn2)c1`, the RP-LC retention time is 574 s.

Molecule `CCC(C)NC(=O)c1cc(-c2cccs2)nc2onc(C)c12` (centres undefined) yielded an RP-LC retention time of 929 s.

Consider `COC[C@@H]1CN(S(=O)(=O)c2cccc(C)c2)C[C@H]1c1ccccn1`, for which the RP-LC retention time was 651 s.

Regarding `CC(C)c1noc(-c2cc(=O)n(CC(=O)Nc3ccc(Cl)cc3F)c3ccccc23)n1`, the RP-LC retention time was 1100 s.

In turn, `COc1ccc(C)cc1NC(=O)C1CCCN(S(=O)(=O)c2cc(-c3noc(C)n3)cs2)C1` (centres undefined) showed an RP-LC retention time of 1040 s.

The molecule `O=C(c1ccco1)N1CCC(O)(c2ccccc2)[C@H](N2CCCC2)C1` (some centres undefined) gave an RP-LC retention time of 555 s.

With `CNC(=O)C1CCCN(c2nc3ncn(CC(=O)Nc4ccc(F)cc4)c(=O)c3s2)C1` (centres undefined), the RP-LC retention time was 634 s.

Consider `O=C(CN1CCN(C(=O)Nc2ccc(Cl)cc2)CC1=O)N1CCN(c2ccc(F)cc2)CC1`, for which the RP-LC retention time was found to be 766 s.

`CN(CCCNC(=O)C1CCCN(C(=O)c2cccc(Cl)c2)C1)c1ccccc1` (centres undefined): the RP-LC retention time worked out at 676 s.

`CCOC(=O)CCC(=O)NCC1(c2ccc(OC)cc2)CCCC1` showed an RP-LC retention time of 856 s.

Molecule `COc1nn(C)cc1C(=O)Nc1cc(-c2cccs2)nn1CCO` registered an RP-LC retention time of 630 s.

On to `O=C(Cn1ccc2c(SCc3ccccc3)nccc21)N1CCN(c2ccccc2)CC1`, for which the RP-LC retention time was found to be 768 s.

`Cc1ccc(-c2csc(NC(=O)c3c(-c4ccc(F)cc4)nc4n3CCS4(=O)=O)n2)cc1`: the RP-LC retention time came out at 1070 s.

Take `CCc1nc2cc(-c3noc(-c4cc5ccccc5oc4=O)n3)ccc2o1`: the RP-LC retention time turned out to be 1010 s.

In turn, `CCOc1ccc2cccc(NC(=O)C3CCN(S(C)(=O)=O)CC3)c2n1` displayed an RP-LC retention time of 864 s.

As to `COc1ccc(OCc2nc(-c3ccc4ncn(C(C)C)c4c3)no2)cc1`, the RP-LC retention time worked out at 727 s.

`O=C(Nc1ccccc1-n1cccc1)c1cn(-c2ccc(F)cc2)nn1`: the RP-LC retention time is 845 s.

For `Cc1ccc(C(=O)Nc2c(-c3ccc(F)cc3)nc3ccccn23)cc1[N+](=O)[O-]`, the RP-LC retention time stood at 701 s.

For `CCS(=O)(=O)Nc1cccc(C(=C2CCCCC2)c2cnc[nH]2)c1`, the RP-LC retention time worked out at 738 s.

Take `O=C(Cc1ccccc1Cl)N1CCN(c2nc(CN3CCOCC3)cs2)CC1`: the RP-LC retention time stood at 640 s.

Source of the values: the METLIN SMRT retention time set (Domingo-Almenara et al. 2019).
